Results reported in patent publication US20260217701A1, “SELECTIVE BET INHIBITORS AND USES THEREOF” (Tay Therapeutics Limited, priority 2022, published 2026).

Test system: imiquimod-induced psoriasis
Assay: Imiquimod-induced psoriasis model
Type: in vivo, mice
Details: for Mean scores of the presence of peeling on the skin of animals at the area of induction of psoriasis / Mean scores of the presence of erythema on the skin of animals at the area of induction of psoriasis / Mean scores of the presence of induration on the skin of animals at the area of induction of psoriasis: mean ± SEM; for Mean PASI Scores in IMI-Psoriasis Model: mice
In short: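 Psoriasis-like dermatitis induced in mice by daily dorsal imiquimod cream (Days 1–14); dosing with Compound A (5% DMSO/40% PEG-400/55% saline vehicle) began Day 8. Read-outs: summed 0–4 scores for erythema, induration and peeling daily to Day 15, plus terminal spleen ratio, behaviour and serum cytokines.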

[1] = IMI + 10 mg/kg, D8 (before start of treatment)

With `COCCn1cc(-c2ccccc2)c(-c2cn(C)c(=O)c3[nH]c(-c4cnn(C(F)(F)F)c4)cc23)cc1=O` [Compound B, 4-(1-(2-methoxyethyl)-2-oxo-5-phenyl-1,2-dihydropyridin-4-yl)-6-methyl-2-(1-(trifluoromethyl)-1H-pyrazol-4-yl)-1,6-dihydro-7H-pyrrolo[2,3-c]pyridin-7-one] the “Mean scores of the presence of peeling on the skin of animals at the area of induction of psoriasis” value (“Mean scores of the presence of peeling” below) (IMI + 3 mg/kg, D15) was 1.3 ± 0.3, the “Mean scores of the presence of erythema on the skin of animals at the area of induction of psoriasis” value (“Mean scores of the presence of erythema” below) [1] was 2.1 ± 0.1 and the “Mean scores of the presence of induration on the skin of animals at the area of induction of psoriasis” value [1] was 2.8 ± 0.2. For the same compound, the “Mean scores of the presence of peeling” value [1] was 2.4 ± 0.3, the “Mean scores of the presence of erythema” value (IMI + 10 mg/kg, D9) was 1.5 ± 0.2 and the “Mean scores of the presence of induration on the skin of animals at the area of induction of psoriasis” value (IMI + 10 mg/kg, D9) was 2.0 ± 0.2. For the same compound, the “Mean scores of the presence of peeling” value (IMI + 10 mg/kg, D9) was 2.1 ± 0.2, the “Mean scores of the presence of erythema” value (IMI + 10 mg/kg, D10) was 1.8 ± 0.2 and the “Mean scores of the presence of induration on the skin of animals at the area of induction of psoriasis” value (IMI + 10 mg/kg, D10) was 2.1 ± 0.2. The “Mean scores of the presence of peeling” value (IMI + 10 mg/kg, D10) was 2.0 ± 0.3, the “Mean scores of the presence of erythema” value (IMI + 10 mg/kg, D11) was 1.5 ± 0.2 and the “Mean scores of the presence of induration on the skin of animals at the area of induction of psoriasis” value (IMI + 10 mg/kg, D11) was 1.5 ± 0.2. The “Mean scores of the presence of peeling” value (IMI + 10 mg/kg, D11) was 1.9 ± 0.1, the “Mean scores of the presence of erythema” value (IMI + 10 mg/kg, D12) was 0.9 ± 0.3 and the “Mean scores of the presence of induration on the skin of animals at the area of induction of psoriasis” value (IMI + 10 mg/kg, D12) was 1.1 ± 0.1. The “Mean scores of the presence of peeling” value (IMI + 10 mg/kg, D12) was 1.0 ± 0.2, the “Mean scores of the presence of erythema” value (IMI + 10 mg/kg, D13) was 0.6 ± 0.3 and the “Mean scores of the presence of induration on the skin of animals at the area of induction of psoriasis” value (IMI + 10 mg/kg, D13) was 1.0 ± 0.0. For the same compound, the “Mean scores of the presence of peeling” value (IMI + 10 mg/kg, D13) was 0.4 ± 0.2, the “Mean scores of the presence of erythema” value (IMI + 10 mg/kg, D14) was 0.1 ± 0.1 and the “Mean scores of the presence of induration on the skin of animals at the area of induction of psoriasis” value (IMI + 10 mg/kg, D14) was 0.6 ± 0.2. For the same compound, the “Mean scores of the presence of peeling” value (IMI + 10 mg/kg, D14) was 0.5 ± 0.2, the “Mean scores of the presence of erythema” value (IMI + 10 mg/kg, D15) was 0.1 ± 0.1 and the “Mean scores of the presence of induration on the skin of animals at the area of induction of psoriasis” value (IMI + 10 mg/kg, D15) was 0.4 ± 0.2. For the same compound, the “Mean scores of the presence of peeling” value (IMI + 10 mg/kg, D15) was 0.4 ± 0.2, the “Mean PASI Scores in IMI-Psoriasis Model” value (IMI + 1 mg/kg, D8 (before start of treatment)) was 7.0 ± 0.3 and the “Mean PASI Scores in IMI-Psoriasis Model” value (IMI + 1 mg/kg, D9) was 6.8 ± 0.6. For the same compound, the “Mean PASI Scores in IMI-Psoriasis Model” value (IMI + 1 mg/kg, D10) was 6.0 ± 0.3, the “Mean PASI Scores in IMI-Psoriasis Model” value (IMI + 1 mg/kg, D11) was 6.5 ± 0.5 and the “Mean PASI Scores in IMI-Psoriasis Model” value (IMI + 1 mg/kg, D12) was 5.6 ± 0.3. For the same compound, the “Mean PASI Scores in IMI-Psoriasis Model” value (IMI + 1 mg/kg, D13) was 5.6 ± 0.5, the “Mean PASI Scores in IMI-Psoriasis Model” value (IMI + 1 mg/kg, D14) was 5.6 ± 0.4 and the “Mean PASI Scores in IMI-Psoriasis Model” value (IMI + 1 mg/kg, D15) was 5.1 ± 0.4. For the same compound, the “Mean PASI Scores in IMI-Psoriasis Model” value (IMI + 3 mg/kg, D8 (before start of treatment)) was 7.4 ± 0.3, the “Mean PASI Scores in IMI-Psoriasis Model” value (IMI + 3 mg/kg, D9) was 6.0 ± 0.4 and the “Mean PASI Scores in IMI-Psoriasis Model” value (IMI + 3 mg/kg, D10) was 5.8 ± 0.4. For the same compound, the “Mean PASI Scores in IMI-Psoriasis Model” value (IMI + 3 mg/kg, D11) was 5.4 ± 0.3, the “Mean PASI Scores in IMI-Psoriasis Model” value (IMI + 3 mg/kg, D12) was 5.4 ± 0.3 and the “Mean PASI Scores in IMI-Psoriasis Model” value (IMI + 3 mg/kg, D13) was 5.0 ± 0.4. For the same compound, the “Mean PASI Scores in IMI-Psoriasis Model” value (IMI + 3 mg/kg, D14) was 4.6 ± 0.4, the “Mean PASI Scores in IMI-Psoriasis Model” value (IMI + 3 mg/kg, D15) was 3.5 ± 0.5 and the “Mean PASI Scores in IMI-Psoriasis Model” value [1] was 7.3 ± 0.4. For the same compound, the “Mean PASI Scores in IMI-Psoriasis Model” value (IMI + 10 mg/kg, D9) was 5.6 ± 0.4, the “Mean PASI Scores in IMI-Psoriasis Model” value (IMI + 10 mg/kg, D10) was 5.9 ± 0.5 and the “Mean PASI Scores in IMI-Psoriasis Model” value (IMI + 10 mg/kg, D11) was 4.9 ± 0.3. The “Mean PASI Scores in IMI-Psoriasis Model” value (IMI + 10 mg/kg, D12) was 3.1 ± 0.5, the “Mean PASI Scores in IMI-Psoriasis Model” value (IMI + 10 mg/kg, D13) was 2.0 ± 0.4 and the “Mean PASI Scores in IMI-Psoriasis Model” value (IMI + 10 mg/kg, D14) was 1.3 ± 0.3. The “Mean PASI Scores in IMI-Psoriasis Model” value (IMI + 10 mg/kg, D15) was 0.9 ± 0.4, the “erythema, induration and peeling of the skin at the area of induction” value (mouse, in vivo) was “significantly reduced” and the “use of enrichment (nesting)” value (relative to vehicle-treated psoriasis animals) was “similarly restored use of nesting”.
